We go through 15 compounds from patent US12139492B2 (Endotarget Inc., priority 2021, dated 2024).

What all share (format): cell-based
One experiment relates to JeKo-1 cells. Kind of experiment: Antiproliferative effect, MTS cell viability assay, JeKo-1 cells. Particulars: Homo sapiens; JeKo-1 mantle cell lymphoma cells; read-out: IC50 (anti-proliferation) JeKO-1 cells. An outline of the steps:
(§1)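 Absorbance at 490 nm of formazan, formed by metabolically active cells from MTS tetrazolium, served as the viability measure after a 72 h treatment across a 0.001–10 μM concentration series plus untreated control.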

The test system of the next experiment is Mino cells. Kind of experiment: Antiproliferative effect, MTS cell viability assay, Mino cells. Conditions: Homo sapiens, MINO, Mino mantle cell lymphoma cells; read-out: IC50 (anti-proliferation) Mino cells. An outline of the steps: as §1
The next experiment addresses BTK (Homo sapiens, UniProt Q06187). The experiment is described as follows: BTK degradation, DC50 and Dmax of Table 1 (cell line not given). Conditions: for DC50: concentration giving 50% reduction of BTK expression level. Also on record: endogenous in cells.

BTK, sequence (Q06187 whole entry): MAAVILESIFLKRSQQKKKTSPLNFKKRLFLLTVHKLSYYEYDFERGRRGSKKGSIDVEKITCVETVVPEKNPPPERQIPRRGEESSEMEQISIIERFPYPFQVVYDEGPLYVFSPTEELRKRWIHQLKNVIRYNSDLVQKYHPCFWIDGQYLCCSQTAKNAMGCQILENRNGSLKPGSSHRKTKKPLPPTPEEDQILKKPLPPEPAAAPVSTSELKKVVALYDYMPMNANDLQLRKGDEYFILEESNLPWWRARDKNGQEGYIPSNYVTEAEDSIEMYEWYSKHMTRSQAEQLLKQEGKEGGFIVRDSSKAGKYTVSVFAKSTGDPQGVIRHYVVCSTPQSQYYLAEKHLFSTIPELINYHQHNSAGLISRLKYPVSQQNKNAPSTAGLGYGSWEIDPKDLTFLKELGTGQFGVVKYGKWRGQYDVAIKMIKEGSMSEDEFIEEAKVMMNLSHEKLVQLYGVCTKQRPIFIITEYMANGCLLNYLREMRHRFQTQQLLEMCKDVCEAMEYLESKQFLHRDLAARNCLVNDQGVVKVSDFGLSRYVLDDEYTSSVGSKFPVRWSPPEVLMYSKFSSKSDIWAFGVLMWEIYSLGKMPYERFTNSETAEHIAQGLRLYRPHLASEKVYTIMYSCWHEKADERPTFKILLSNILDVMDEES

Consider `Nc1ncnc2c1c(-c1ccc(Oc3ccccc3)cc1)nn2[C@@H]1CCCN(C2CCN(CCN3CCC(c4ccc5c(c4)CN(C4CCC(=O)NC4=O)C5=O)CC3)CC2)C1` (stereo partly drawn) [Compound 150, 3-(5-(1-(2-((R)-3-(4-amino-3-(4-phenoxyphenyl)-1H-pyrazolo[3,4-d]pyrimidin-1-yl)-[1,4′-bipiperidin]-1′-yl)ethyl)piperidin-4-yl)-1-oxoisoindolin-2-yl)piperidine-2,6-dione], for which, in the experiment with JeKo-1 cells, the IC50 is 1 to 10 µM. Moreover, in the experiment on Mino cells, the IC50 was above 10 µM. Besides, on BTK, the Dmax was above 75% and the DC50 lay within 10 to 50 nM.

As to `Nc1ncnc2c1c(-c1ccc(Oc3ccccc3)cc1)nn2C1CCN(C(=O)N2CCC(CCCN3CCN(c4ccc5c(c4)CN(C4CCC(=O)NC4=O)C5=O)CC3)CC2)CC1` (stereo not drawn) [Compound 118, 3-(5-(4-(3-(1-(4-(4-amino-3-(4-phenoxyphenyl)-1H-pyrazolo[3,4-d]pyrimidin-1-yl)piperidine-1-carbonyl)piperidin-4-yl)propyl)piperazin-1-yl)-1-oxoisoindolin-2-yl)piperidine-2,6-dione], the IC50 in the experiment with JeKo-1 cells was 1 to 10 µM; in the experiment on Mino cells, above 10 µM. The compound also had a Dmax on BTK above 75%. The same compound yielded a DC50 at BTK above 50 nM.

Take `Nc1ncnc2c1c(-c1ccc(Oc3ccccc3)cc1)nn2[C@@H]1CCCN(C2CCN(C(=O)N3CCN(CCC4CCN(c5ccc6c(c5)C(=O)N(C5CCC(=O)NC5=O)C6=O)CC4)CC3)CC2)C1` (stereo partly drawn) [Compound 177, 5-(4-(2-(4-((R)-3-(4-amino-3-(4-phenoxyphenyl)-1H-pyrazolo[3,4-d]pyrimidin-1-yl)-[1,4′-bipiperidine]-1′-carbonyl)piperazin-1-yl)ethyl)piperidin-1-yl)-2-(2,6-dioxopiperidin-3-yl)isoindoline-1,3-dione]: the IC50 with JeKo-1 cells lay within 1 to 10 µM. Further, the IC50 with Mino cells lay within 1 to 10 µM. At BTK, this compound returned a Dmax above 90% and a half-maximal degradation concentration (DC50) of 10 to 50 nM.

As for `Nc1ncnc2c1c(-c1ccc(Oc3ccccc3)cc1)nn2[C@@H]1CCCN(C2CCN(C(=O)N3CCN(CCN4CCN(c5ccc6c(c5)C(=O)N(C5CCC(=O)NC5=O)C6=O)CC4)CC3)CC2)C1` (stereo partly drawn) [Compound 175, 5-(4-(2-(4-((R)-3-(4-amino-3-(4-phenoxyphenyl)-1H-pyrazolo[3,4-d]pyrimidin-1-yl)-[1,4′-bipiperidine]-1′-carbonyl)piperazin-1-yl)ethyl)piperazin-1-yl)-2-(2,6-dioxopiperidin-3-yl)isoindoline-1,3-dione], the IC50 in the experiment on JeKo-1 cells lay within 1 to 10 µM. Also, the IC50 in the experiment with Mino cells was 1 to 10 µM. At BTK, this compound displayed a Dmax above 90% and a DC50 of 10 to 50 nM.

In the case of `Nc1ncnc2c1c(-c1ccc(Oc3ccccc3)cc1)nn2[C@@H]1CCCN(C2CCN(CCCC3CCN(c4ccc5c(c4)CN(C4CCC(=O)NC4=O)C5=O)CC3)CC2)C1` (stereo partly drawn) [Compound 156, 3-(5-(4-(3-((R)-3-(4-amino-3-(4-phenoxyphenyl)-1H-pyrazolo[3,4-d]pyrimidin-1-yl)-[1,4′-bipiperidin]-1′-yl)propyl)piperidin-1-yl)-1-oxoisoindolin-2-yl)piperidine-2,6-dione], in the experiment on JeKo-1 cells, the IC50 is above 10 µM. Further, in the experiment on Mino cells, the IC50 was above 10 µM. At BTK, the Dmax was above 50% and the DC50 was above 50 nM.

For `Nc1ncnc2c1c(-c1ccc(Oc3ccccc3)cc1)nn2[C@@H]1CCCN(C2CCN(C(=O)N3CCN(CCC4CCN(c5ccc6c(c5)CN(C5CCC(=O)NC5=O)C6=O)CC4)CC3)CC2)C1` (stereo partly drawn) [Compound 178, 3-(5-(4-(2-(4-((R)-3-(4-amino-3-(4-phenoxyphenyl)-1H-pyrazolo[3,4-d]pyrimidin-1-yl)-[1,4′-bipiperidine]-1′-carbonyl)piperazin-1-yl)ethyl)piperidin-1-yl)-1-oxoisoindolin-2-yl)piperidine-2,6-dione], the IC50 in the experiment on JeKo-1 cells is above 10 µM. Also, the IC50 in the experiment with Mino cells is above 10 µM. Moreover, at BTK, the Dmax is above 75% and the 50% degradation concentration (DC50) is above 50 nM.

Take `Nc1ncnc2c1c(-c1ccc(Oc3ccccc3)cc1)nn2[C@@H]1CCCN(CC2CCN(CC3CCN(c4ccc5c(c4)CN(C4CCC(=O)NC4=O)C5=O)CC3)CC2)C1` (stereo partly drawn) [Compound 130, 3-(5-(4-((4-(((R)-3-(4-amino-3-(4-phenoxyphenyl)-1H-pyrazolo[3,4-d]pyrimidin-1-yl)piperidin-1-yl)methyl)piperidin-1-yl)methyl)piperidin-1-yl)-1-oxoisoindolin-2-yl)piperidine-2,6-dione]: in the experiment with JeKo-1 cells, the IC50 was in the range of 1 to 10 µM. In the experiment with Mino cells, the IC50 fell in the range of 1 to 10 µM. Moreover, at BTK, the Dmax was above 90% and the DC50 is 10 to 50 nM.

In the case of `Nc1ncnc2c1c(-c1ccc(Oc3ccccc3)cc1)nn2[C@@H]1CCCN(C2CCN(C(=O)N3CCC(CCN4CCC(c5ccc6c(c5)CN(C5CCC(=O)NC5=O)C6=O)CC4)CC3)CC2)C1` (stereo partly drawn) [Compound 184, 3-(5-(1-(2-(1-((R)-3-(4-amino-3-(4-phenoxyphenyl)-1H-pyrazolo[3,4-d]pyrimidin-1-yl)-[1,4′-bipiperidine]-1′-carbonyl)piperidin-4-yl)ethyl)piperidin-4-yl)-1-oxoisoindolin-2-yl)piperidine-2,6-dione], the IC50 with JeKo-1 cells and in the experiment with Mino cells was 1 to 10 µM each time. Moreover, at BTK, the Dmax was above 90%. Moreover, at BTK, the 50% degradation concentration (DC50) lay within 10 to 50 nM.

For `Nc1ncnc2c1c(-c1ccc(Oc3ccccc3)cc1)nn2[C@@H]1CCCN(C(=O)N2CCN(CCN3CCC(c4ccc5c(c4)CN(C4CCC(=O)NC4=O)C5=O)CC3)CC2)C1` (stereo partly drawn) [Compound 70, 3-(5-(1-(2-(4-((R)-3-(4-amino-3-(4-phenoxyphenyl)-1H-pyrazolo[3,4-d]pyrimidin-1-yl)piperidine-1-carbonyl)piperazin-1-yl)ethyl)piperidin-4-yl)-1-oxoisoindolin-2-yl)piperidine-2,6-dione], the IC50 in the experiment on JeKo-1 cells lay in the range of 1 to 10 µM. For the same compound, in the experiment with Mino cells, the IC50 is 1 to 10 µM. Besides, at BTK, the Dmax was above 90% and the DC50 is below 10 nM.

Consider `Nc1ncnc2c1c(-c1ccc(Oc3ccccc3)cc1)nn2[C@@H]1CCCN(C(=O)N2CCC(CN3CCC(c4ccc5c(c4)CN(C4CCC(=O)NC4=O)C5=O)CC3)CC2)C1` (stereo partly drawn) [Compound 62, 3-(5-(1-((1-((R)-3-(4-amino-3-(4-phenoxyphenyl)-1H-pyrazolo[3,4-d]pyrimidin-1-yl)piperidine-1-carbonyl)piperidin-4-yl)methyl)piperidin-4-yl)-1-oxoisoindolin-2-yl)piperidine-2,6-dione], for which the IC50 with JeKo-1 cells was below 1 µM. In addition, the IC50 in the experiment with Mino cells was below 1 µM. On BTK, this compound came in with a Dmax above 90% and a DC50 of 10 to 50 nM.

Consider `Nc1ncnc2c1c(-c1ccc(Oc3ccccc3)cc1)nn2C1CCCN(CCOCCN2CCC(c3ccc4c(c3)CN(C3CCC(=O)NC3=O)C4=O)CC2)C1` (stereo not drawn) [Compound 16, 3-(5-(1-(2-(2-(3-(4-amino-3-(4-phenoxyphenyl)-1H-pyrazolo[3,4-d]pyrimidin-1-yl)piperidin-1-yl)ethoxy)ethyl)piperidin-4-yl)-1-oxoisoindolin-2-yl)piperidine-2,6-dione], for which the IC50 in the experiment on JeKo-1 cells was in the range of 1 to 10 µM. For the same compound, the IC50 with Mino cells was 1 to 10 µM. On BTK, this compound had a Dmax above 90% and a DC50 of 10 to 50 nM.

Take `Nc1ncnc2c1c(-c1ccc(Oc3ccccc3)cc1)nn2[C@@H]1CCCN(C2CCN(C(=O)N3CCN(CCCN4CCC(c5ccc6c(c5)C(=O)N(C5CCC(=O)NC5=O)C6=O)CC4)CC3)CC2)C1` (stereo partly drawn) [Compound 191, 5-(1-(3-(4-((R)-3-(4-amino-3-(4-phenoxyphenyl)-1H-pyrazolo[3,4-d]pyrimidin-1-yl)-[1,4′-bipiperidine]-1′-carbonyl)piperazin-1-yl)propyl)piperidin-4-yl)-2-(2,6-dioxopiperidin-3-yl)isoindoline-1,3-dione]: the IC50 in the experiment on JeKo-1 cells and with Mino cells was above 10 µM each time. At BTK, the Dmax was above 75%. The compound further came in with a DC50 on BTK of 10 to 50 nM.

On to `Nc1ncnc2c1c(-c1ccc(Oc3ccccc3)cc1)nn2C1CCN(CC2CCN(C(=O)N3CCC(C4CCN(c5ccc6c(c5)CN(C5CCC(=O)NC5=O)C6=O)CC4)CC3)CC2)CC1` (stereo not drawn) [Compound 40, 3-(5-(1′-(4-((4-(4-amino-3-(4-phenoxyphenyl)-1H-pyrazolo[3,4-d]pyrimidin-1-yl)piperidin-1-yl)methyl)piperidine-1-carbonyl)-[4,4′-bipiperidin]-1-yl)-1-oxoisoindolin-2-yl)piperidine-2,6-dione], for which, in the experiment with JeKo-1 cells, the IC50 lay in the range of 1 to 10 µM. In the experiment on Mino cells, the IC50 fell in the range of 1 to 10 µM. At BTK, this compound returned a Dmax above 90% and a DC50 above 50 nM.

As to `Nc1ncnc2c1c(-c1ccc(Oc3ccccc3)cc1)nn2[C@@H]1CCCN(C2CCN(C(=O)N3CCN(CCN4CCC(c5ccc6c(c5)C(=O)N(C5CCC(=O)NC5=O)C6=O)CC4)CC3)CC2)C1` (stereo partly drawn) [Compound 179, 5-(1-(2-(4-((R)-3-(4-amino-3-(4-phenoxyphenyl)-1H-pyrazolo[3,4-d]pyrimidin-1-yl)-[1,4′-bipiperidine]-1′-carbonyl)piperazin-1-yl)ethyl)piperidin-4-yl)-2-(2,6-dioxopiperidin-3-yl)isoindoline-1,3-dione], the IC50 with JeKo-1 cells is above 10 µM; in the experiment with Mino cells it was 1 to 10 µM. On BTK, the Dmax was above 75%. In addition, on BTK, the DC50 was in the range of 10 to 50 nM.

For `Nc1ncnc2c1c(-c1ccc(Oc3ccccc3)cc1)nn2C1CCN(C(=O)N2CCN(CCCN3CCC(c4ccc5c(c4)CN(C4CCC(=O)NC4=O)C5=O)CC3)CC2)CC1` (stereo not drawn) [Compound 124, 3-(5-(1-(3-(4-(4-(4-amino-3-(4-phenoxyphenyl)-1H-pyrazolo[3,4-d]pyrimidin-1-yl)piperidine-1-carbonyl)piperazin-1-yl)propyl)piperidin-4-yl)-1-oxoisoindolin-2-yl)piperidine-2,6-dione], the IC50 in the experiment with JeKo-1 cells and with Mino cells was above 10 µM each time. The compound also had a Dmax on BTK above 90%. The compound further returned a half-maximal degradation concentration (DC50) on BTK above 50 nM.
